# Test results reported in patent US20130197009A1, “ANTAGONIST FOR MUTANT ANDROGEN RECEPTOR” (ASTELLAS PHARMA INC., priority 2010, published 2013).
# Substitutions are numbered along the chain they refer to.
# Experiments:
# wild type AR (Wild) = target: T1, wild type AR (Wild) (Homo sapiens, UniProt P10275); test: Inhibitory action against transcriptional activation of AR (luciferase reporter, CHO-K1 cells, DHT 0.3 nM)
# T1 sequence (P10275 1-920): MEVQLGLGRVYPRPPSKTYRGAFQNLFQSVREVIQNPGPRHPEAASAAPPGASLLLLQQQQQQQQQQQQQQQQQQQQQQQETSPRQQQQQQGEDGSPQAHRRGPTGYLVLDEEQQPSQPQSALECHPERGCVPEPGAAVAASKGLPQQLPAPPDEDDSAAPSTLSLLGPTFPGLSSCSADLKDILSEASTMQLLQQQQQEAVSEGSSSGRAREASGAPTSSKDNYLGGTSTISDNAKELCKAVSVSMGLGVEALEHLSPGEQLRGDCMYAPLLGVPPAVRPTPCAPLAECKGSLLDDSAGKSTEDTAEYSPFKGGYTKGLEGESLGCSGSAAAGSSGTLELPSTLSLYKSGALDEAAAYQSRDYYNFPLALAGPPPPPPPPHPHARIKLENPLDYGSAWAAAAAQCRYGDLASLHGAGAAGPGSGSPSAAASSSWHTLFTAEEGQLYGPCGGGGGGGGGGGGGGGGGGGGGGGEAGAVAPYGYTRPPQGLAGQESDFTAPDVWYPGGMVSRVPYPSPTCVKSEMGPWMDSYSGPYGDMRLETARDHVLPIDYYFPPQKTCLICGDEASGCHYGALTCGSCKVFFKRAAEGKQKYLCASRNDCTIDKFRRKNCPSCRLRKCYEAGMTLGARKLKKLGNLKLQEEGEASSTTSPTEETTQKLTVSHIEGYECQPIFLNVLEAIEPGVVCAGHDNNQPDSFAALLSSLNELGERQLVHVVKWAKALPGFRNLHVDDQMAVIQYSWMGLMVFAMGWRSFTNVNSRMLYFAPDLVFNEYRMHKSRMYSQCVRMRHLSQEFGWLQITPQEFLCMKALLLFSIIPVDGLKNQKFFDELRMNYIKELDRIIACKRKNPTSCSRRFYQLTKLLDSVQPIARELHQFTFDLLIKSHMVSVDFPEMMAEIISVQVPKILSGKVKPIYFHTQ
# human T877A mutant AR = target: T2, human T877A mutant AR (Homo sapiens, UniProt P10275, T878A); test: Inhibitory action against transcriptional activation of mutant AR (luciferase reporter, CHO-K1 cells, DHT 0.3 nM); format: cell-based; conditions: CHO-K1 cells stably expressing T877A mutant AR, with DHT 0.3 nM, >1000 nM means no inhibitory action observed, read-out: IC50, inhibition of transcriptional activation, T877A
# T2 construct: expressed in transfected cells; host or cells: CHO-K1
# T2 sequence (P10275 1-920 T878A): T1 sequence (P10275 1-920) with T878A
# Procedure: Subsequently, the cells were incubated overnight again at 37° C. and then treated with a luciferase assay system.
# An IC50 value was calculated by Sigmoid-Emax model nonlinear regression analysis.
# The inhibitory action of the respective test compounds against the receptor was calculated as an IC50 value, and the values are described in the following table. In addition, “-” means that the test was not performed.
SMILES,IC50 (wild type AR (Wild)),IC50 (human T877A mutant AR)
"COc1cc(N2C[C@@H](C)N(C(=O)Nc3cc(C)nc(C)n3)C[C@@H]2C)ccc1C#N [Ex 7, (2R,5S)-4-(4-cyano-3-methoxyphenyl)-N-(2,6-dimethylpyrimidin-4-yl)-2,5-dimethylpiperazine-1-carboxamide]",76 nM,–
"C[C@@H]1CN(c2ccc(C#N)c(Cl)c2)[C@@H](C)CN1C(=O)Nc1cnc(N2CCCCC2)nc1 [Ex 8, (2R,5S)-4-(3-chloro-4-cyanophenyl)-2,5-dimethyl-N-[2-(piperidin-1-yl)pyrimidin-5-yl]piperazine-1-carboxamide]",17 nM,–
"COc1ncc(NC(=O)N2C[C@H](C)N(c3ccc(C#N)c(Br)c3)C[C@H]2C)cn1 [Ex 11, (2R,5S)-4-(3-bromo-4-cyanophenyl)-N-(2-methoxypyrimidin-5-yl)-2,5-dimethylpiperazine-1-carboxamide]",26 nM,23 nM
"Cc1cc(NC(=O)N2C[C@H](C)N(c3ccc(C#N)c(Cl)c3)C[C@H]2C)cc(Cl)n1 [Ex 16, (2R,5S)-4-(3-chloro-4-cyanophenyl)-N-(2-chloro-6-methylpyridin-4-yl)-2,5-dimethylpiperazine-1-carboxamide]",45 nM,24 nM
"COc1cc(NC(=O)N2C[C@H](C)N(c3ccc(C#N)c(Cl)c3)C[C@H]2C)cc(C)n1 [Ex 18, (2R,5S)-4-(3-chloro-4-cyanophenyl)-N-(2-methoxy-6-methylpyridin-4-yl)-2,5-dimethylpiperazine-1-carboxamide]",10 nM,15 nM
"COc1cc(NC(=O)N2C[C@H](C)N(c3ccc(C#N)c(Br)c3)C[C@H]2C)cc(C)n1 [Ex 19, (2R,5S)-4-(3-bromo-4-cyanophenyl)-N-(2-methoxy-6-methylpyridin-4-yl)-2,5-dimethylpiperazine-1-carboxamide]",11 nM,19 nM
"C[C@@H]1CN(c2ccc(C#N)c(Cl)c2)[C@@H](C)CN1C(=O)Nc1cnc2ccccc2n1 [Ref 1-3, (2R,5S)-4-(3-chloro-4-cyanophenyl)-2,5-dimethyl-N-(quinoxalin-2-yl)piperazine-1-carboxamide, reference compound]",51 nM,680 nM

# Next, values leading:
IC50 (wild type AR (Wild)),IC50 (human T877A mutant AR),SMILES
140 nM,350 nM,"CC(C)Oc1cc(N2C[C@@H](C)N(C(=O)Nc3cnc(C4CC4)nc3)C[C@@H]2C)ccc1C#N [Ref 1-1, reference compound]"
58 nM,89 nM,"COc1cc(N2C[C@@H](C)N(C(=O)Nc3nc(C)cc(O)n3)C[C@@H]2C)ccc1C#N [Ref 1-2, reference compound]"
